Results published in patent US20140030712A1, “GENOMIC APPROACH TO THE IDENTIFICATION OF BIOMARKERS FOR ANTIBIOTIC RESISTANCE AND SUSCEPTIBILITY IN CLINICAL ISOLATES OF BACTERIAL PATHOGENS” (priority 2011, published 2014).
Values after ≈ are worked out from the molar mass of the structure shown. Like-named read-outs stand apart in the source and are kept apart here.

How the values were obtained:
[1] = test system: E. coli clinical isolates; test: microbe, parasite or virus in culture; type: cell-based; details: Escherichia coli
Experimental: Clinical isolate collection and antibiotic resistance determination. […] Hospital-derived qualitative antibiotic susceptibility status denoted each isolate as susceptible (S), intermediate resistant (I), or resistance (R) to the drugs listed in Table 1. Quantitative MICs for the fluoroquinolones ciprofloxacin (CIP), gatifloxacin (GAT), levofloxacin (LVX), and norfloxacin (NOR) were determined in our laboratory as described (LBB).

[2] = test system: E. coli BW25113 K-12 strain; details: deletion of any of three cryptic prophages (rac, e14, CP4-6); cited from earlier work
[3] = pool H01, n=2 isolates, MDR ≧5, read-out: Fluoroquinolone MIC
[4] = pool H02, n=5 isolates, MDR ≧3, read-out: Fluoroquinolone MIC
[5] = pool H03, n=5 isolates, MDR ≧3, read-out: Fluoroquinolone MIC
[6] = pool M01, n=10 isolates, MDR ≧3, read-out: Fluoroquinolone MIC
[7] = pool M02, n=10 isolates, MDR ≧5, read-out: Fluoroquinolone MIC
[8] = pool M03, n=13 isolates, no MDR, read-out: Fluoroquinolone MIC
[9] = pool M04, n=23 isolates, no MDR, read-out: Fluoroquinolone MIC
[10] = pool M05, n=16 isolates, MDR ≧5, read-out: Fluoroquinolone MIC
[11] = pool M06, n=13 isolates, MDR ≧3, read-out: Fluoroquinolone MIC
[12] = pool M07, n=33 isolates, MDR ≧3, read-out: Fluoroquinolone MIC
[13] = pool M08, n=3 isolates, No MDR, read-out: Fluoroquinolone MIC
[14] = pool M09, n=3 isolates, MDR ≧3, read-out: Fluoroquinolone MIC
[15] = pool M10, n=5 isolates, MDR ≧5, read-out: Fluoroquinolone MIC
[16] = pool M11, n=5 isolates, MDR ≧3, read-out: Fluoroquinolone MIC
[17] = pool S01, n=9 isolates, no MDR, read-out: Fluoroquinolone MIC
[18] = pool S02, n=9 isolates, no MDR, read-out: Fluoroquinolone MIC

| SMILES | MIC [1, 3] [µg/mL] | MIC [1, 4] [µg/mL] | MIC [1, 5] [µg/mL] | MIC [1, 6] [µg/mL] | MIC [1, 7] [µg/mL] | MIC [1, 8] [µg/mL] | MIC [1, 9] [µg/mL] | MIC [1, 10] [µg/mL] | MIC [1, 11] [µg/mL] | MIC [1, 12] [µg/mL] | MIC [1, 13] [µg/mL] | MIC [1, 14] [µg/mL] | MIC [1, 15] [µg/mL] | MIC [1, 16] [µg/mL] | MIC [1, 17] [µg/mL] | MIC [1, 18] [µg/mL] | MIC ([1]; pools denoted "H", read-out: norfloxacin MICs) [µg/mL] | nalidixic acid MICs [2] |
| --- | --- | --- | --- | --- | --- | --- | --- | --- | --- | --- | --- | --- | --- | --- | --- | --- | --- | --- |
| COc1c(N2CCNC(C)C2)c(F)cc2c(=O)c(C(=O)O)cn(C3CC3)c12 (centres unmarked) [GAT, gatifloxacin] | 10 to 30 (≈ 26.6 to 79.9 µM) | 10 to 30 (≈ 26.6 to 79.9 µM) | 50 to 200 (≈ 133 to 533 µM) | 10 to 30 (≈ 26.6 to 79.9 µM) | 10 to 30 (≈ 26.6 to 79.9 µM) | 8 to 30 (≈ 21.3 to 79.9 µM) | 30 to 100 (≈ 79.9 to 266 µM) | 10 to 20 (≈ 26.6 to 53.3 µM) | 10 to 20 (≈ 26.6 to 53.3 µM) | 10 (≈ 26.6 µM) | 100 to 300 (≈ 266 to 799 µM) | 20 (≈ 53.3 µM) | 20 to 100 (≈ 53.3 to 266 µM) | 10 to 50 (≈ 26.6 to 133 µM) | 0.01 to 0.02 (≈ 0.0266 to 0.0533 µM) | 0.01 to 0.09 (≈ 0.0266 to 0.24 µM) | – | – |
| C[C@H]1COc2c(N3CCN(C)CC3)c(F)cc3c(=O)c(C(=O)O)cn1c23 [LVX, levofloxacin] | 10 to 200 (≈ 27.7 to 553 µM) | 40 to 50 (≈ 111 to 138 µM) | 100 (≈ 277 µM) | 20 to 50 (≈ 55.3 to 138 µM) | 20 to 50 (≈ 55.3 to 138 µM) | 8 to 30 (≈ 22.1 to 83 µM) | 50 to 100 (≈ 138 to 277 µM) | 30 to 50 (≈ 83 to 138 µM) | 30 to 100 (≈ 83 to 277 µM) | 10 to 20 (≈ 27.7 to 55.3 µM) | 50 to 200 (≈ 138 to 553 µM) | 10 to 20 (≈ 27.7 to 55.3 µM) | 30 to 100 (≈ 83 to 277 µM) | 20 to 50 (≈ 55.3 to 138 µM) | 0.02 to 0.07 (≈ 0.0553 to 0.194 µM) | 0.03 to 0.17 (≈ 0.083 to 0.47 µM) | – | – |
| CCn1cc(C(=O)O)c(=O)c2cc(F)c(N3CCNCC3)cc21 [NOR, norfloxacin] | 1000 (≈ 3130 µM) | 400 to 1000 (≈ 1250 to 3130 µM) | 400 to 1000 (≈ 1250 to 3130 µM) | 200 to 700 (≈ 626 to 2190 µM) | 200 to 700 (≈ 626 to 2190 µM) | 50 to 200 (≈ 157 to 626 µM) | 200 to 700 (≈ 626 to 2190 µM) | 50 to 300 (≈ 157 to 939 µM) | 200 to 400 (≈ 626 to 1250 µM) | 50 to 200 (≈ 157 to 626 µM) | 100 to 200 (≈ 313 to 626 µM) | 100 to 200 (≈ 313 to 626 µM) | 50 to 500 (≈ 157 to 1570 µM) | 50 to 200 (≈ 157 to 626 µM) | 0.03 to 0.09 (≈ 0.0939 to 0.282 µM) | 0.04 to 0.34 (≈ 0.125 to 1.06 µM) | > 1000 | – |
| CCn1cc(C(=O)O)c(=O)c2ccc(C)nc21 [nalidixic acid] | – | – | – | – | – | – | – | – | – | – | – | – | – | – | – | – | – | lowered |
